Consider twelve molecules from PubChem BioAssay AID248 (DTP/NCI, 2004).

Values joined by “and” are separate entries in the source; they are usually repeats but may differ in a detail not shown here. Identical values can stand only once. Toxic doses and inconclusive results are not listed.

For the assay, the system named is L1210 leukemia ip in BDF1 mice, survival T/C. The experiment in a line: NCI In Vivo Anticancer Drug Screen. Data for tumor model L1210 Leukemia (intraperitoneal) in B6D2F1 (BDF1) mice. Conditions: endpoint: mean survival time, higher = longer survival. The procedure, abridged:
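Read-out is survival time, reported as the treated-group measurement over the vehicle-control measurement.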

[1] abbreviates: dose: 100.0 mg/kg/injection, schedule: Q01DX009 (ip), vehicle: saline with Tween-80.
Where [2] appears, read: dose: 200.0 mg/kg/injection, schedule: Q01DX009 (ip), vehicle: saline with Tween-80.

With `O=C(Nc1ccc(Oc2ccc(NC(=O)Nc3cccc(F)c3)cc2)cc1)Nc1cccc(F)c1`, the T/C (dose: 25.0 mg/kg/injection, schedule: Q01DX009 (ip), vehicle: carboxymethylcellulose (CMC)) is 89 % of control and 90 % of control; the T/C (dose: 50.0 mg/kg/injection, schedule: Q01DX009 (ip), vehicle: carboxymethylcellulose (CMC)) is 86 % of control and 87 % of control; the T/C (dose: 100.0 mg/kg/injection, schedule: Q01DX001 (ip), vehicle: carboxymethylcellulose (CMC)) was 93 % of control and 94 % of control; the T/C (dose: 100.0 mg/kg/injection, schedule: Q01DX009 (ip), vehicle: carboxymethylcellulose (CMC)) is 100 % of control and 106 % of control and 86 % of control; the T/C (dose: 100.0 mg/kg/injection, schedule: Q04DX002 (ip), vehicle: carboxymethylcellulose (CMC)) is 97 % of control and 99 % of control; the T/C (dose: 100.0 mg/kg/injection, schedule: Q04DX003 (ip), vehicle: carboxymethylcellulose (CMC)) is 94 % of control and 105 % of control. Moreover, the T/C (dose: 200.0 mg/kg/injection, schedule: Q01DX001 (ip), vehicle: carboxymethylcellulose (CMC)) was 96 % of control and 105 % of control; the T/C (dose: 200.0 mg/kg/injection, schedule: Q01DX009 (ip), vehicle: carboxymethylcellulose (CMC)) is 99 % of control; the T/C (dose: 200.0 mg/kg/injection, schedule: Q04DX002 (ip), vehicle: carboxymethylcellulose (CMC)) is 95 % of control and 108 % of control; the T/C (dose: 200.0 mg/kg/injection, schedule: Q04DX003 (ip), vehicle: carboxymethylcellulose (CMC)) is 94 % of control and 92 % of control; the T/C (dose: 400.0 mg/kg/injection, schedule: Q01DX001 (ip), vehicle: carboxymethylcellulose (CMC)) was 96 % of control and 91 % of control; the T/C (dose: 400.0 mg/kg/injection, schedule: Q01DX009 (ip), vehicle: carboxymethylcellulose (CMC)) was 93 % of control. Also, the T/C by setting is: (dose: 400.0 mg/kg/injection, schedule: Q04DX002 (ip), vehicle: carboxymethylcellulose (CMC)) 95 % of control and 89 % of control; (dose: 400.0 mg/kg/injection, schedule: Q04DX003 (ip), vehicle: carboxymethylcellulose (CMC)) 91 % of control and 92 % of control.
Regarding `CC(=O)Nc1ncnc2n[nH]c(C#N)c12`, the T/C was 108 % of control (dose: 50.0 mg/kg/injection, schedule: Q01DX005 (ip), vehicle: saline with Tween-80) and 106 % of control (dose: 100.0 mg/kg/injection, schedule: Q01DX005 (ip), vehicle: saline with Tween-80).
Regarding `Cc1cc(/C=C/c2ccc3cc(N(C)C)ccc3[n+]2C)c(C)n1-c1ccccc1`, the T/C (dose: 1.56 mg/kg/injection, schedule: Q01DX009 (ip), vehicle: saline with Tween-80) was 112 % of control.
Turning to `O=c1[nH]c(=S)c2ncn(C3OC(CO)C(O)C3O)c2[nH]1` (stereo not given), the T/C is, setting by setting: (dose: 100.0 mg/kg/injection, schedule: Q01DX001 (ip), vehicle: saline) 107 % of control; (dose: 200.0 mg/kg/injection, schedule: Q01DX001 (ip), vehicle: saline) 101 % of control; (dose: 400.0 mg/kg/injection, schedule: Q01DX001 (ip), vehicle: saline) 104 % of control.
Turning to `COc1ccc2ccc3ccc(OC)c(OC(C)=O)c3c2c1`, the T/C was 94 % of control (dose: 100.0 mg/kg/injection, schedule: Q01DX001 (ip), vehicle: steriod suspending solution); 105 % of control (dose: 200.0 mg/kg/injection, schedule: Q01DX001 (ip), vehicle: steriod suspending solution); 108 % of control (dose: 400.0 mg/kg/injection, schedule: Q01DX001 (ip), vehicle: steriod suspending solution).
Regarding `Nc1nc(N)c(CCCCc2ccc([N+](=O)[O-])cc2)c(N)n1`, the T/C runs as follows: (dose: 100.0 mg/kg/injection, schedule: Q01DX009 (ip), vehicle: Klucel (hydroxypropylcellulose) (HPC)) 100 % of control; (dose: 200.0 mg/kg/injection, schedule: Q01DX009 (ip), vehicle: Klucel (hydroxypropylcellulose) (HPC)) 102 % of control; (dose: 400.0 mg/kg/injection, schedule: Q01DX009 (ip), vehicle: Klucel (hydroxypropylcellulose) (HPC)) 94 % of control.
In the case of `CC[C@@]1(O)C(=O)OCc2c1cc1n(c2=O)Cc2cc3cc(O)ccc3nc2-1`, the T/C by setting is: (dose: 0.15 mg/kg/injection, schedule: Q01DX015 (ip), vehicle: saline) 151 % of control; (dose: 0.22 mg/kg/injection, schedule: Q01DX015 (ip), vehicle: saline) 157 % of control; (dose: 0.34 mg/kg/injection, schedule: Q01DX015 (ip), vehicle: saline) 165 % of control; (dose: 0.51 mg/kg/injection, schedule: Q01DX015 (ip), vehicle: saline) 233 % of control; (dose: 0.77 mg/kg/injection, schedule: Q01DX015 (ip), vehicle: saline) 157 % of control; (dose: 1.0 mg/kg/injection, schedule: Q01DX009 (ip), vehicle: saline) 185 % of control. Besides, the T/C runs as follows: (dose: 1.16 mg/kg/injection, schedule: Q01DX015 (ip), vehicle: saline) 161 % of control; (dose: 1.75 mg/kg/injection, schedule: Q01DX015 (ip), vehicle: saline) 177 % of control; (dose: 2.0 mg/kg/injection, schedule: Q01DX001 (ip), vehicle: saline) 111 % of control; (dose: 2.0 mg/kg/injection, schedule: Q01DX009 (ip), vehicle: saline) 229 % of control; (dose: 2.0 mg/kg/injection, schedule: Q01DX009 (oral), vehicle: saline) 105 % of control and 108 % of control; (dose: 3.0 mg/kg/injection, schedule: Q01DX009 (oral), vehicle: saline) 114 % of control and 115 % of control. For the same molecule, the T/C runs as follows: (dose: 4.0 mg/kg/injection, schedule: Q01DX001 (ip), vehicle: saline) 164 % of control; (dose: 7.0 mg/kg/injection, schedule: Q01DX009 (oral), vehicle: saline) 101 % of control and 120 % of control; (dose: 8.0 mg/kg/injection, schedule: Q01DX001 (ip), vehicle: saline) 242 % of control; (dose: 10.0 mg/kg/injection, schedule: Q01DX009 (oral), vehicle: saline) 121 % of control; (dose: 15.0 mg/kg/injection, schedule: Q01DX009 (oral), vehicle: saline) 115 % of control; (dose: 16.0 mg/kg/injection, schedule: Q01DX001 (ip), vehicle: saline) 88 % of control. The T/C was 113 % of control (dose: 12.0 micrograms/kg/injection, schedule: Q01DX015 (ip), vehicle: saline); 111 % of control (dose: 19.0 micrograms/kg/injection, schedule: Q01DX015 (ip), vehicle: saline); 118 % of control (dose: 29.0 micrograms/kg/injection, schedule: Q01DX015 (ip), vehicle: saline); 120 % of control (dose: 44.0 micrograms/kg/injection, schedule: Q01DX015 (ip), vehicle: saline); 150 % of control (dose: 100.0 micrograms/kg/injection, schedule: Q01DX015 (ip), vehicle: saline).
Take `C=NCC#N`: the T/C is, setting by setting: under setting [1], 91 % of control; under setting [2], 91 % of control; (dose: 400.0 mg/kg/injection, schedule: Q01DX009 (ip), vehicle: saline with Tween-80) 93 % of control.
As to `NC(=O)c1nccnc1Cl`, the T/C reads like this: under setting [1], 91 % of control; (dose: 100.0 mg/kg/injection, schedule: Q04DX003 (ip), vehicle: saline with Tween-80) 100 % of control; under setting [2], 98 % of control; (dose: 200.0 mg/kg/injection, schedule: Q04DX003 (ip), vehicle: saline with Tween-80) 97 % of control; (dose: 400.0 mg/kg/injection, schedule: Q04DX003 (ip), vehicle: saline with Tween-80) 110 % of control.
On to `CCCCCCCCCCCCCCCCCCNC(=S)NC1CCCCC1`, for which the T/C was 98 % of control (dose: 60.0 mg/kg/injection, schedule: Q01DX015 (ip), vehicle: carboxymethylcellulose (CMC)); 96 % of control (dose: 120.0 mg/kg/injection, schedule: Q01DX015 (ip), vehicle: carboxymethylcellulose (CMC)); 96 % of control (dose: 240.0 mg/kg/injection, schedule: Q01DX015 (ip), vehicle: carboxymethylcellulose (CMC)); 98 % of control (dose: 480.0 mg/kg/injection, schedule: Q01DX015 (ip), vehicle: carboxymethylcellulose (CMC)).
Regarding `N#Cc1nnn(-c2ccccc2)n1`, the T/C by setting is: (dose: 25.0 mg/kg/injection, schedule: Q01DX009 (ip), vehicle: acetone) 101 % of control; (dose: 50.0 mg/kg/injection, schedule: Q01DX009 (ip), vehicle: acetone) 111 % of control; (dose: 50.0 mg/kg/injection, schedule: Q04DX003 (ip), vehicle: acetone) 93 % of control; (dose: 100.0 mg/kg/injection, schedule: Q01DX001 (ip), vehicle: acetone) 99 % of control; (dose: 100.0 mg/kg/injection, schedule: Q04DX003 (ip), vehicle: acetone) 88 % of control; (dose: 200.0 mg/kg/injection, schedule: Q01DX001 (ip), vehicle: acetone) 99 % of control.
On to `Cc1[nH]c(=O)n(C)c(=O)c1C`, for which the T/C reads like this: (dose: 100.0 mg/kg/injection, schedule: Q01DX001 (ip), vehicle: Klucel (hydroxypropylcellulose) (HPC)) 109 % of control; (dose: 200.0 mg/kg/injection, schedule: Q01DX001 (ip), vehicle: Klucel (hydroxypropylcellulose) (HPC)) 106 % of control; (dose: 400.0 mg/kg/injection, schedule: Q01DX001 (ip), vehicle: Klucel (hydroxypropylcellulose) (HPC)) 104 % of control.
